Laboratory results taken from patent publication US8088804B2, “N-hydroxyamide derivatives possessing antibacterial activity” (Pfizer Inc., priority 2005, dated 2012).
In brackets after ≈: the same amount, converted by molar mass.

Columns and labels:
H. influen. = assay: Susceptibility testing (MIC, CLSI microdilution); format: cell-based, Haemophilus influenzae; details: 20 h at 35° C., unit assumed
Procedure: (§1) Compounds were tested following the microdilution method of CLSI (Clinical and Laboratory Standards Institute. Methods for dilution antimicrobial susceptibility tests for bacteria that grow aerobically; Approved standard—sixth edition. CLSI document M7-A5, CLSI, Wayne, Pa. 2003). Assays were performed in sterile plastic 96-well microtiter trays with round bottom wells (Greiner).
(§2) Stock solutions of test compounds and control antibiotics were prepared at 10 mg/ml in DMSO. Serial 2-fold dilutions of each drug were performed in a microtiter plate across each row using DMSO as solvent at 100-fold the desired final concentration. Wells in columns #1-11 contain drug and column #12 was kept as a growth control for the organism with no drug. Each well in the mother plate was diluted with sterile deionized water and DMSO, mixed, and volumes of 10 μl distributed to each well in the resulting assay plates.
(§3) Stock cultures were prepared using the Microbank™ method (Pro-Lab Diagnostics) and stored at −80° C. To propagate each strain, one bead was removed from the frozen vial and aseptically streaked onto Trypticase Soy Agar (Difco) which were incubated at 35° C. Standardized inocula were prepared using the direct colony suspension method according to CLSI guidelines (Clinical and Laboratory Standards Institute. Methods for dilution antimicrobial susceptibility tests for bacteria that grow aerobically; Approved standard—sixth edition. CLSI document M7-A5, CLSI, Wayne, Pa., 2003). Isolated colonies were selected from an 18-24 hr agar plate and resuspended in 0.9% sterile saline to match a 0.5 McFarland turbidity standard using a calorimeter (Vitek) at 80% of transmitance. The suspension was used within 15 minutes of preparation.
(§4) Mueller-Hinton Broth (MHB) (Difco) was prepared at a 1.1× concentration and supplemented with Ca++ and Mg++ as recommended by CLSI. For each organism, the standardized suspension was diluted 1:180 into appropriate growth medium in a sterile reservoir. After mixing, wells in the drug-containing assay plates were inoculated with a volume of 90 μl. Thus, for each minimum inhibitory concentration (MIC) determination, each well contains a final volume of 100 μl with an inoculum size of approximately 5×10^5 colony forming units (cfu)/ml and no more than 1% DMSO.
(§5) The completed microtiter plates were incubated 20 h at 35° C. in ambient air. Optical density of each well was determined at 600 nm using a VersaMax Microplate reader (Molecular Devices, Sunnyvale, Calif.). The MIC was defined as the lowest drug concentration causing complete suppression of visible bacterial growth.

E. coli (2) = assay: Susceptibility testing (MIC, CLSI microdilution); format: cell-based, Escherichia coli; details: 20 h at 35° C., in µg/mL (unit assumed)
Procedure: as §1, §2, §3, §4, §5

E. coli tolC = assay: Susceptibility testing (MIC, CLSI microdilution); format: cell-based, Escherichia coli; details: 20 h at 35° C., unit assumed
Procedure: as §1, §2, §3, §4, §5

P. ae LpxC enzyme = P. ae LpxC enzyme (Pseudomonas aeruginosa, UniProt P47205); assay: Enzyme inhibition testing (fluorescamine assay); format: biochemical; details: read-out: ENZYME (percent inhibition); for inhibition at 0.5 µg/mL: @0.5 μg/ml; for inhibition at 0.1 µg/mL: @0.1 μg/ml
Chain of P. ae LpxC enzyme (P47205 whole entry): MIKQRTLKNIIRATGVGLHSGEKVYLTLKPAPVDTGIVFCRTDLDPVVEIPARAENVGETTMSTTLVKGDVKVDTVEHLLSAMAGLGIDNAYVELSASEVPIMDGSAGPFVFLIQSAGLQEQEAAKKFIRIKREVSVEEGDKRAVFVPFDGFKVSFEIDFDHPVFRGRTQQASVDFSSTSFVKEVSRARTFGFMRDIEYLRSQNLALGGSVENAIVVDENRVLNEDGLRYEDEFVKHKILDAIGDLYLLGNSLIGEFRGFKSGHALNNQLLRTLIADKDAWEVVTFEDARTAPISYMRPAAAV
Procedure: Compounds were tested based on a published method (Wang W., 2001, Anal Biochem, 290, 338-46) with modifications. Enzyme assays were performed in the assay buffer (50 mM HEPES, pH8, 0.005% Brij, 50 μM ZnSO4, 1 mg/ml BSA) in 96-well V-bottom microtiter plates.
Stock solutions of test compounds and control antibiotics are prepared at 10 mg/ml in DMSO and are diluted in the assay buffer to 6-fold the final testing concentration. 5 μl compound dilution is distributed to the well of the assay plate. EDTA is used as positive control and the final concentration in assay is 12.5 mM.
P. ae LpxC enzyme dilution in the assay buffer is added to the compound in plate and pre-incubated with the compound at room temperature for 10 min. LpxC substrate is added to initiate the enzyme reaction and the final enzyme and substrate concentrations are 1.2 μM and 0.4 mM, respectively. The reaction continues at RT for 4 hrs before diluted with 45 μl of Borate buffer (0.4 M, pH9), followed by addition of 40 μl derivatization reagent (fluorescamine 2 mg/ml DMF). This mixture is incubated at RT for 10 min followed by addition of 150 μl DMF/H2O (1:1). The resulting solution is loaded onto Millipore filter unit (Microcon 10 k MWCO) and spun at 13 k rpm on bench top centrifuge for 15 min. 100 μl of this filtrate is transferred to a low fluorescence clear-bottom 96-well plate (Corning) and the fluorescence is detected at ex360 nm and em465 nm on a Tecan fluorescence plate reader. The percent inhibition is calculated based on EDTA produces 100% inhibition and negative control produces 100% activity.

K. pneu. = assay: Susceptibility testing (MIC, CLSI microdilution); format: cell-based, Klebsiella pneumoniae; details: 20 h at 35° C., unit assumed
Procedure: as §1, §2, §3, §4, §5

P. aerug. (2) = assay: Susceptibility testing (MIC, CLSI microdilution); format: cell-based, Pseudomonas aeruginosa; details: 20 h at 35° C., in µg/mL (unit assumed)
Procedure: as §1, §2, §3, §4, §5

P. aerug. Hypersuc = assay: Susceptibility testing (MIC, CLSI microdilution); format: cell-based, Pseudomonas aeruginosa; details: 20 h at 35° C., Δ efflux, hypersusceptible strain, unit assumed
Procedure: as §1, §2, §3, §4, §5

| Compound | MIC H. influen. (H. influen.) [µg/mL] | MIC E. coli (2) (E. coli (2)) | MIC E. coli tolC (E. coli tolC) [µg/mL] | inhibition at 0.5 µg/mL (P. ae LpxC enzyme) [%] | MIC K. pneu. (K. pneu.) [µg/mL] | MIC P. aerug. (2) (P. aerug. (2)) | MIC P. aerug. Hypersuc (P. aerug. Hypersuc) [µg/mL] | inhibition at 0.1 µg/mL (P. ae LpxC enzyme) [%] |
| --- | --- | --- | --- | --- | --- | --- | --- | --- |
| CCCc1ccc(-c2ccc(C(=O)N3CC[S+]([O-])[C@H]3C(=O)NO)cc2)cc1 (stereo partly drawn) [Compound 14, (S)-N-Hydroxy-3-(4′-propylbiphenylcarbonyl)thiazolidine-sulfoxide-2-carboxamide] | > 64 | >64 | 16 (≈ 41.4 µM) | 99 | 64 (≈ 166 µM) | 32 | 8 (≈ 20.7 µM) | – |
| CCCc1ccc(-c2ccc(C(=O)N3CCS(=O)(=O)[C@H]3C(=O)NO)cc2)cc1 [Compound 15, (S)-N-Hydroxy-3-(4′-propylbiphenylcarbonyl)thiazolidine-sulfone-2-carboxamide] | 32 (≈ 79.5 µM) | 16 | 2 (≈ 4.97 µM) | – | 4 (≈ 9.94 µM) | 8 | 2 (≈ 4.97 µM) | 41 |
| CCCc1ccc(-c2ccc(C(=O)N3CSC[C@H]3C(=O)NO)cc2)cc1 [Compound 16] | > 64 | >64 | 16 (≈ 43.2 µM) | 57 | > 64 | >64 | 16 (≈ 43.2 µM) | – |
| CCCc1ccc(-c2ccc(C(=O)N3CCS[C@@H]3C(=O)NO)cc2)cc1 [Compound 18, (R)-N-Hydroxy-3-(4′-propylbiphenylcarbonyl)thiazolidine-2-carboxamide] | 64 (≈ 173 µM) | >64 | 16 (≈ 43.2 µM) | 50 | 32 (≈ 86.4 µM) | >64 | 32 (≈ 86.4 µM) | – |
| CCCc1ccc(-c2ccc(C(=O)N3CCS(=O)(=O)[C@@H]3C(=O)NO)cc2)cc1 [Compound 19, (R)-N-Hydroxy-3-(4′-propylbiphenylcarbonyl)thiazolidine-sulfone-2-carboxamide] | 32 (≈ 79.5 µM) | 8-16 | 2 (≈ 4.97 µM) | – | 4 (≈ 9.94 µM) | 8 | 2 (≈ 4.97 µM) | 10 |
| CCCc1ccc(-c2ccc(C(=O)N[C@@H](CCSC)C(=O)NO)cc2)cc1 [Compound 26, (S)-N-(1-(Hydroxyamino)-4-(methylthio)-1-oxobutan-2-yl)-4′-propylbiphenyl-4-carboxamide] | > 64 | >64 | > 64 | 72 | > 64 | >64 | > 64 | – |
| CCCc1ccc(-c2ccc(C(=O)N[C@@H](CCS(C)(=O)=O)C(=O)NO)cc2)cc1 [Compound 27, (S)-N-(1-(Hydroxyamino)-4-(methylsulfone)-1-oxobutan-2-yl)-4′-propylbiphenyl-4-carboxamide] | > 64 | >64 | > 64 | – | > 64 | >64 | > 64 | 38 |
| CCCc1ccc(-c2ccc(C(=O)NC(C(=O)NO)c3cccs3)cc2)cc1 (stereo not drawn) [Compound 30, N-(2-(Hydroxyamino)-2-oxo-1-(thiophen-2-yl)ethyl)-4′-propylbiphenyl-4-carboxamide] | 16 (≈ 40.6 µM) | 64 | 2 (≈ 5.07 µM) | 87 | 8 (≈ 20.3 µM) | >64 | 32 (≈ 81.1 µM) | – |
| CCCc1ccc(-c2ccc(C(=O)N[C@@H](Cn3cccn3)C(=O)NO)cc2)cc1 [Compound 31] | > 64 | >64 | 1 (≈ 2.55 µM) | 100 | > 64 | >64 | 64 (≈ 163 µM) | – |
